Test results from ChEMBL document CHEMBL1201862, “PubChem BioAssay data set” (2004).
Values belong to the compound of their own block, whether it stands above or below them. The source made the active and inactive calls.

Legend:
[1] = molecular target: T1, Corticotropin-releasing factor receptor 2/Corticotropin-releasing factor-binding protein (Homo sapiens, UniProt P24387+Q13324); assay: activators of CRF receptor 2 with binding protein – uHTS hits, confirmation (AID 602473); type: functional; conditions: read-out: EC50_Mean
T1 sequence (Q13324 whole entry): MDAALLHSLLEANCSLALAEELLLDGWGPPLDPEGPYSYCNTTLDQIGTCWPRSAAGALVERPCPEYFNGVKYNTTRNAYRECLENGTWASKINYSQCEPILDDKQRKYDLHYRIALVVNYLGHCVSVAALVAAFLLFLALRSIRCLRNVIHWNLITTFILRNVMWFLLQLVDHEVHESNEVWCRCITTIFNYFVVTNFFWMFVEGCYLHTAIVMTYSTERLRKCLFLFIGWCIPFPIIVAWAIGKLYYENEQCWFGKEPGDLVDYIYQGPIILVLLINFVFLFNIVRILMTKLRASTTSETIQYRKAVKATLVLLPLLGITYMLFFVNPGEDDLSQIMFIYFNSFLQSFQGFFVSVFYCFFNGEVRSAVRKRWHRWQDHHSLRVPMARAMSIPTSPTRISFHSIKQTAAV
T1 sequence (P24387 whole entry): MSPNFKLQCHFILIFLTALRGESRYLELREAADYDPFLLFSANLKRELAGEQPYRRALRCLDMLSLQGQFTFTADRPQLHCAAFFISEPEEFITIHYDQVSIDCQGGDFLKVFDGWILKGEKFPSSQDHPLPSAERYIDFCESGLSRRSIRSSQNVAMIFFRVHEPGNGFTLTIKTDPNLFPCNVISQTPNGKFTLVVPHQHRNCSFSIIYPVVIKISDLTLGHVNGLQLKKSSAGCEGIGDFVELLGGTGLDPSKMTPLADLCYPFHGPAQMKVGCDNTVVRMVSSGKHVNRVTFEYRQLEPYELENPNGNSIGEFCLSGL

[2] = molecular target: T1, Corticotropin-releasing factor receptor 2/Corticotropin-releasing factor-binding protein; assay: Dose Response confirmation of uHTS hits for small molecule antagonists of the CRF-binding protein and CRF-R2 receptor complex.; type: functional; conditions: read-out: IC50_Mean
[3] = CRF-BP/CRF-R2 complex antagonists, dose response, cell-based, uHTS hits, 384-well (AID 651639); type: functional, Homo sapiens; conditions: read-out: IC50_Mean
[4] = cytotoxicity toward NIH3T3 fibroblasts, dose response, counter-screen, cell-based, ATP luminescence, mouse fibroblasts (AID 2010); type: functional;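 further: cells exposed to compound for about 90 hours before reading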
cells [5] = assay: cells
[6] = inhibitors of intracellular T. cruzi replication, confirmation, NIH3T3 host cells, beta-gal luminescence (AID 2044); type: functional, cell-based;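 further: intracellular parasites grown in NIH/3T3 mouse fibroblasts as host cells; luminescent beta-galactosidase reporter signal from transgenic T. cruzi replicating inside host cells; inhibitors lower the luminescence signal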
[7] = molecular target: T2, Sentrin-specific protease 8 (Homo sapiens, UniProt Q96LD8); type: functional
T2 sequence (Q96LD8 whole entry): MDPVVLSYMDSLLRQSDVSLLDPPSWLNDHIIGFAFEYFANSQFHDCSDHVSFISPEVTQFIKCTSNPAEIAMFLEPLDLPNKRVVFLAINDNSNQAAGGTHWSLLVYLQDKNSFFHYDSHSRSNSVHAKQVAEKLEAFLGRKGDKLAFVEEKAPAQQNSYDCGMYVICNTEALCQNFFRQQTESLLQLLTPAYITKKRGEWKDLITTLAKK

[8] = molecular target: T2, Sentrin-specific protease 8; type: functional; remark: listed apart in the source
[9] = molecular target: Photoreceptor-specific nuclear receptor (Homo sapiens, UniProt Q9Y5X4); type: functional, cell-based;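 further: CHO-S cells with Gal4-NCOR and VP16-NR2E3 two-hybrid luciferase reporter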
Chain of Photoreceptor-specific nuclear receptor (Q9Y5X4 whole entry, the tested form may be a part): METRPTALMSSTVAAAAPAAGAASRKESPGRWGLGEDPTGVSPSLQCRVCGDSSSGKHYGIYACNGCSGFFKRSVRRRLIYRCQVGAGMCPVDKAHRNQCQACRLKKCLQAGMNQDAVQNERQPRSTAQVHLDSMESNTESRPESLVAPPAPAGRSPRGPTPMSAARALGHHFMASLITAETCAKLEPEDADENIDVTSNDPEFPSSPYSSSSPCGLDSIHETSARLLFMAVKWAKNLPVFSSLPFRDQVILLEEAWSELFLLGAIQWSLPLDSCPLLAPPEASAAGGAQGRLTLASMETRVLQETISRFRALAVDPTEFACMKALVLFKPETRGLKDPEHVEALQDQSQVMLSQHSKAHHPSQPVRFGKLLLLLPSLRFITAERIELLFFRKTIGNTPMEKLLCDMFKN

INS1 = assay: beta cell apoptosis inhibitors, cytokine rescue, dose response, luminescence, retest (AID 449756); type: functional, cell-based; conditions: Rattus norvegicus;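 further: cell death triggered by IL-1 beta plus TNF-alpha plus IFN-gamma mixture; protective hits raise ATP signal compared with cytokine alone wells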
Cytochrome P450 2C9 = Cytochrome P450 2C9 (Homo sapiens, UniProt P11712)
Chain of Cytochrome P450 2C9 (P11712 whole entry): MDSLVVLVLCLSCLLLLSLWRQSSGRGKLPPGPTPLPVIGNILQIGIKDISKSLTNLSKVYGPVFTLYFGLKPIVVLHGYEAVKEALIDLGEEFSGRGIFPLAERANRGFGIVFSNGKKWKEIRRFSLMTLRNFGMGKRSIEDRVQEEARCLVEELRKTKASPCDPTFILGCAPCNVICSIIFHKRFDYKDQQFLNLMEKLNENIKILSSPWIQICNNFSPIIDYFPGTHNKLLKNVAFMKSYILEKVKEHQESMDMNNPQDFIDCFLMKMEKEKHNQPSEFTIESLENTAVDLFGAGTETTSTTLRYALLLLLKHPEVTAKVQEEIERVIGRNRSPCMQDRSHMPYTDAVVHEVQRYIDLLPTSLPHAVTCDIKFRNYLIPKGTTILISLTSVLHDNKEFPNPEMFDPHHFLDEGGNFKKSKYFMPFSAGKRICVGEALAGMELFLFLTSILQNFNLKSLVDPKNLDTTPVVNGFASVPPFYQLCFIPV

Cytochrome P450 3A4 = Cytochrome P450 3A4 (Homo sapiens, UniProt P08684);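 further: CYP3A4 tested as one member of a cytochrome P450 panel screen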
Chain of Cytochrome P450 3A4 (P08684 whole entry): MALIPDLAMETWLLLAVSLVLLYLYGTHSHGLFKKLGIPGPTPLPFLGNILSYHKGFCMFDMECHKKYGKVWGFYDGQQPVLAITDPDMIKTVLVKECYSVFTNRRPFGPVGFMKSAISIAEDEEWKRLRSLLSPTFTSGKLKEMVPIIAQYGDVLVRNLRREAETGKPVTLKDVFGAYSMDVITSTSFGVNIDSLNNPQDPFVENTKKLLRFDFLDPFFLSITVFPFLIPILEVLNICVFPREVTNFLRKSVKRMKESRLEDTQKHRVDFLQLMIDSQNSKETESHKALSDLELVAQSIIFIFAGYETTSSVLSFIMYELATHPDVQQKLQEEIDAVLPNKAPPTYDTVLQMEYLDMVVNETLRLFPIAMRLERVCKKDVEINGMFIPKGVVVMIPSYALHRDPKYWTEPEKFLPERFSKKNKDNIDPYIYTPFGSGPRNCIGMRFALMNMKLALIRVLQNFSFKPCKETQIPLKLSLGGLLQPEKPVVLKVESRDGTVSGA

Estrogen receptor beta = Estrogen receptor beta (Homo sapiens, UniProt Q92731);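 further: recombinant ER-beta bound to coactivator SRC1 peptide in presence of estradiol agonist; inhibitors block coactivator peptide binding and lower the FRET signal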
Chain of Estrogen receptor beta (Q92731 whole entry): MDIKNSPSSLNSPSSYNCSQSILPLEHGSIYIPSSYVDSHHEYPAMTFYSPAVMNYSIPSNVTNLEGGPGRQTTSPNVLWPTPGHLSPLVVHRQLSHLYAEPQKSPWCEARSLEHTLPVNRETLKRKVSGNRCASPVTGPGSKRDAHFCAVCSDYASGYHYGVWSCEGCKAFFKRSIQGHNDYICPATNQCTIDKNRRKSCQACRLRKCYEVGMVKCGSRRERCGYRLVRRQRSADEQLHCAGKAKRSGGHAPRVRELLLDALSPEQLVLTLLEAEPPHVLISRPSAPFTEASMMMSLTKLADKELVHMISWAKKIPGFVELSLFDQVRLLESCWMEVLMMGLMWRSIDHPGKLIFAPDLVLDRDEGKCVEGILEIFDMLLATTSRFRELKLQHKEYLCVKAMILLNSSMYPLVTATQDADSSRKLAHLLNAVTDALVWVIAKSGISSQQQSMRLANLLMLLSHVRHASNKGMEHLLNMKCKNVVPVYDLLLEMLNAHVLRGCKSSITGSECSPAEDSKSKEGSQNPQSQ

Protein Tat = molecular target: T3, Protein Tat (Human immunodeficiency virus type 1 group M subtype B (isolate HXB2)(HIV-1), UniProt P04608); type: functional;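 further: tat binding to TAR RNA read out by fluorescence polarization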
T3 sequence (P04608 whole entry): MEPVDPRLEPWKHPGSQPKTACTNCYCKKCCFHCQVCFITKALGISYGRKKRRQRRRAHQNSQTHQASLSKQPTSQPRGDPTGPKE

cells [10] = type: functional, cell-based
cells [11] = type: functional, cell-based; remark: listed apart in the source
[12] = molecular target: T4, DNA repair and recombination protein RAD54-like (Homo sapiens, UniProt Q92698); assay: inhibitors of human RAD54 branch migration, confirmation, biochemical, fluorescence, cherry-picked samples, dose series (AID 651657); type: functional
T4 sequence (Q92698 whole entry): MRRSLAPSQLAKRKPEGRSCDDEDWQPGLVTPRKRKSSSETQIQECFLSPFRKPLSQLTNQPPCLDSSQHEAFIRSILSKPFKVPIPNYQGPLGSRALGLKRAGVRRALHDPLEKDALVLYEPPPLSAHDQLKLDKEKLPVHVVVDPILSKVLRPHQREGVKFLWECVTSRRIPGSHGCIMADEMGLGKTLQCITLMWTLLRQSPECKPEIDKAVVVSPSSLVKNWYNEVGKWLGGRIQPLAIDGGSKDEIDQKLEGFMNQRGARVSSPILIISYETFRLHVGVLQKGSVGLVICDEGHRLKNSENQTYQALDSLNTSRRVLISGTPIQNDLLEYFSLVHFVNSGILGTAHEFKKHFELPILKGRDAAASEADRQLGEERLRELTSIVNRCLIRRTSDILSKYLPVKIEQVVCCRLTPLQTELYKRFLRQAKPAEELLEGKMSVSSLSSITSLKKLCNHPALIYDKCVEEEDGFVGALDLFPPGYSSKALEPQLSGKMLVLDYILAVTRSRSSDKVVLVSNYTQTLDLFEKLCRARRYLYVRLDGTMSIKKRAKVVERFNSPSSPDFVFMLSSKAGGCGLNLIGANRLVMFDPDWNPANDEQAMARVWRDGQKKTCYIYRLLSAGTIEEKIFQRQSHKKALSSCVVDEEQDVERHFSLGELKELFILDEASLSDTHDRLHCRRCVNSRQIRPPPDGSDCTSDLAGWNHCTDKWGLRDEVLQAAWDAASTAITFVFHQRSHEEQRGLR

Kallikrein-7 = Kallikrein-7 (Homo sapiens, UniProt P49862); assay: Fluorescence Intensity-based biochemical primary high throughput dose response assay to identify activators of kallikrein-7 (K7) zymogen.
Chain of Kallikrein-7 (P49862 whole entry): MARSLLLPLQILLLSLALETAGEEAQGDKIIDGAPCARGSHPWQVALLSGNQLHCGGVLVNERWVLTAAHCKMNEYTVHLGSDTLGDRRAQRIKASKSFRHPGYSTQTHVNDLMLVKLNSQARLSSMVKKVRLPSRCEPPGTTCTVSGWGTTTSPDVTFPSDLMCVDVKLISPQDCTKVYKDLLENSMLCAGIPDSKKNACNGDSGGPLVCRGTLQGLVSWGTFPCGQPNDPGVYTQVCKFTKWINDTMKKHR

- EC50 [1]: > 53 µM (inactive)
- IC50 [2]: 3.48 µM (active)
- IC50 [3]: > 20 µM (inactive)
Compound: O=c1c2ccccc2n(Cc2ccc(F)cc2)c(=O)n1C1CCCC1

Compound: CCOC(=O)C1CCCN(Cc2ccc(-c3ccccc3)cc2)C1 (stereo not drawn)
- EC50 [4]: > 60 µM (not active)
- EC50 (cells [5]): 0.429 µM (active)
- EC50 [6]: < 0.1 µM (active)

Compound: CC1(OC(=O)C2CCCC2)C(=O)C=C2C=C3CCCCN3C=C2C1=O (stereo not drawn)
- IC50 [7]: 4.28 µM (active)
- IC50 [8]: 3.82 µM (active)

Compound: O=c1cc(N2CCN(c3cccc(Cl)c3)CC2)[nH]c(=O)n1C1CCCCC1
- IC50 [9]: 0.0374 µM (active)
- AC50 (INS1): 1.15 µM (active)
- AC50 (Cytochrome P450 2C9): 3.16 µM (inconclusive)
- AC50 (Cytochrome P450 3A4): 3.55 µM (inconclusive)

- EC50 [1]: > 53 µM (inactive)
- IC50 [2]: < 0.368 µM (active)
- IC50 [3]: > 20 µM (inactive)
Compound: CCc1nnc(NS(=O)(=O)c2ccc(NC(=S)NC(=O)/C=C/c3ccccc3)cc2)s1

Compound: CC1(OC(=O)c2ccc(Cl)nc2)C(=O)C=C2C=C3CCCN3C=C2C1=O (stereo not drawn)
- IC50 [7]: 8.11 µM (active)
- IC50 [8]: 5.33 µM (active)

- IC50 (Estrogen receptor beta): > 50 µM (not active)
Compound: Cc1cc(S(=O)(=O)N(Cc2ccc(F)cc2)CC2CCCO2)ccc1-n1cnnn1 (stereo not drawn)

- IC50 (Estrogen receptor beta): > 50 µM (not active)
Compound: O=C(CSc1nnc(-c2cccnc2)n1-c1ccccc1)Nc1ccc2c(c1)OCO2

Compound: Cc1cc(Cl)cc2c1NC(=O)[C@]21[C@@H]2C(=O)N(Cc3ccccc3)C(=O)[C@@H]2[C@@H]2CCCN21
- IC50 (Protein Tat): > 100 µM (active)

Compound: COc1cc(OC)c2nc(C)c3c(c2c1)N(c1ccc(O)cc1)CC3
- EC50 (cells [10]): > 350 µM (not active)
- EC50 (cells [11]): > 350 µM (not active)
- EC50 [4]: > 60 µM (not active)
- AC50 [12]: 9.09 µM (active)
- EC50 [6]: 2.49 µM (active)
- AC50 (Cytochrome P450 3A4): 10 µM (inconclusive)

- EC50 (Kallikrein-7): 9.72 µM (active)
- AC50 (Cytochrome P450 2C9): 35.5 µM (inconclusive)
Compound: Cc1ccc(C(=O)Nc2ccc3nccnc3c2)cc1
